Laboratory results published in patent publication US20260098053A1, “COMPOSITIONS AND METHODS FOR TREATING CNS DISORDERS” (SAGE THERAPEUTICS, INC., priority 2019, published 2026).

The molecules below were run against [35S]-TBPS binding, rat brain cortical membranes (assay: Steroid inhibition of [35S]-TBPS binding). Settings: Table 4, 3 nM [35S]-TBPS, in the presence of 5 mM GABA, read-out: TBPS IC50.
Summary of the method: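 Washed P2 cortical membranes from Sprague-Dawley rats, in 200 mM NaCl/50 mM Na-K phosphate pH 7.4, incubated 90 min at room temp with 3 nM [35S]-TBPS, […] GABA and test drug (0.5% DMSO final). Nonspecific binding defined with […] unlabeled TBPS; filtration and scintillation counting. IC50 and Imax from non-linear curve fits, means±SEM of experiments.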

SMILES	IC50
Cc1nnn(CC(=O)[C@H]2CCCC[C@H]3[C@@H]4CC[C@@H]5C[C@](C)(O)CCC[C@]5(C)[C@H]4CC[C@]23C)n1 [Example 62, 1-((1S,5aS,5bR,7aR,9R,12aS,12bS,14aS)-9-hydroxy-9,12a,14a-trimethylicosahydrodicyclohepta[a,f]naphthalen-1-yl)-2-(5-methyl-2H-tetrazol-2-yl)ethanone]	< 100 nM
Cc1nnnn1CC(=O)[C@H]1CCCC[C@H]2[C@@H]3CC[C@@H]4C[C@](C)(O)CCC[C@]4(C)[C@H]3CC[C@]12C [Example 63, 1-((1S,5aS,5bR,7aR,9R,12aS,12bS,14aS)-9-hydroxy-9,12a,14a-trimethylicosahydrodicyclohepta[a,f]naphthalen-1-yl)-2-(5-methyl-1H-tetrazol-1-yl)ethanone]	100 to 1000 nM
Cc1nnn(CC(=O)[C@@H]2CCCC[C@H]3[C@@H]4CC[C@@H]5C[C@](C)(O)CCC[C@]5(C)[C@H]4CC[C@]23C)n1 [Example 64]	100 to 1000 nM
Cc1nnnn1CC(=O)[C@@H]1CCCC[C@H]2[C@@H]3CC[C@@H]4C[C@](C)(O)CCC[C@]4(C)[C@H]3CC[C@]12C [Example 65, 1-((1R,5aS,5bR,7aR,9R,12aS,12bS,14aS)-9-hydroxy-9,12a,14a-trimethylicosahydrodicyclohepta[a,f]naphthalen-1-yl)-2-(5-methyl-1H-tetrazol-1-yl)ethanone]	> 1000 nM

Same assay, conditions: Table 5, 3 nM [35S]-TBPS, in the presence of 5 mM GABA, read-out: TBPS IC50

SMILES	IC50
CC(=O)[C@H]1CC[C@H]2[C@@H]3CC[C@@H]4C[C@](C)(O)CC[C@@H]4[C@H]3CC[C@@H]21 [Example 66]	< 100 nM
CC(=O)[C@@H]1CC[C@H]2[C@@H]3CC[C@@H]4C[C@](C)(O)CC[C@@H]4[C@H]3CC[C@@H]21 [Example 67, 1-((3R,5R,8R,9R,10S,13S,14S,17R)-3-hydroxy-3-methylhexadecahydro-1H-cyclopenta[a]phenanthren-17-yl)ethan-1-one]	> 1000 nM
C[C@@]1(O)CC[C@H]2[C@H](CC[C@@H]3[C@@H]2CC[C@H]2[C@H]3CC[C@@H]2C(=O)Cn2cc(C#N)cn2)C1 [Example 68, 1-(2-((3R,5R,8R,9R,10S,13S,14S,17S)-3-hydroxy-3-methylhexadecahydro-1H-cyclopenta[a]phenanthren-17-yl)-2-oxoethyl)-1H-pyrazole-4-carbonitrile]	< 100 nM
Cc1nnn(CC(=O)[C@H]2CC[C@H]3[C@@H]4CC[C@@H]5C[C@](C)(O)CC[C@@H]5[C@H]4CC[C@@H]32)n1 [Example 69, 1-((3R,5R,8R,9R,10S,13S,14S,17S)-3-hydroxy-3-methylhexadecahydro-1H-cyclopenta[a]phenanthren-17-yl)-2-(5-methyl-2H-tetrazol-2-yl)ethan-1-one]	< 100 nM
Cc1nnnn1CC(=O)[C@H]1CC[C@H]2[C@@H]3CC[C@@H]4C[C@](C)(O)CC[C@@H]4[C@H]3CC[C@@H]21 [Example 70, 1-((3R,5R,8R,9R,10S,13S,14S,17S)-3-hydroxy-3-methylhexadecahydro-1H-cyclopenta[a]phenanthren-17-yl)-2-(5-methyl-1H-tetrazol-1-yl)ethan-1-one]	< 100 nM
CC(=O)[C@H]1CC[C@H]2[C@@H]3CC[C@H]4C[C@](C)(O)CC[C@@H]4[C@H]3CC[C@@H]21 [Example 72, 1-((3R,5S,8R,9R,10S,13S,14S,17S)-3-hydroxy-3-methylhexadecahydro-1H-cyclopenta[a]phenanthren-17-yl)ethanone]	> 1000 nM
Cc1nnn(CC(=O)[C@H]2CC[C@H]3[C@@H]4CC[C@H]5C[C@](C)(O)CC[C@@H]5[C@H]4CC[C@@H]32)n1 [Example 73, 1-((3R,5S,8R,9R,10S,13S,14S,17S)-3-hydroxy-3-methylhexadecahydro-1H-cyclopenta[a]phenanthren-17-yl)-2-(5-methyl-2H-tetrazol-2-yl)ethanone]	> 1000 nM
